Source: article PMC3770947, “A cyclic GMP-dependent signalling pathway regulates bacterial phytopathogenesis” (The EMBO Journal, 2013)

Tests used:
full-length XC_0249 = biological target: T1, full-length XC_0249 (Xanthomonas campestris, UniProt Q8PDU6); test: diguanylate cyclase assay, HPLC and mass spectrometry; assay type: biochemical; conditions: 150 μM GTP, 10 mM MgCl2, pH 7.6, 60 min
T1 construct: gene XCC0239; full-length purified protein; cNMP domain plus GGDEF domain

[1] = biological target: cNMP domain of XC_0249 (Xanthomonas campestris pv. campestris (Xcc) strain 8004); test: crystal structure; XC_0249 cNMP domain with cyclic GMP bound, resolution 2.2 Å
[2] = biological target: T2, CYC domain of XC_0250 (CYCHis6) (Xanthomonas campestris, UniProt Q8PDU5); test: guanylyl cyclase assay, reverse-phase HPLC and mass spectrometry; assay type: biochemical; conditions: 0.5 mM GTP, 10 mM MnCl2, pH 8.0, 25°C
T2 construct: gene XCC0240; single band of 21 kDa
T2 sequence (Q8PDU5 entry or part of it): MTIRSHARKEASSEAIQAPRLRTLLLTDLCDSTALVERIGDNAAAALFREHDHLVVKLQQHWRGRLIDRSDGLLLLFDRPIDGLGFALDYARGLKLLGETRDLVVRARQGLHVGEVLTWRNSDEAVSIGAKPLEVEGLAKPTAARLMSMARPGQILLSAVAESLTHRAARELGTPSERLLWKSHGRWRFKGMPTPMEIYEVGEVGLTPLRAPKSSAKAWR

T1 sequence (Q8PDU6 entry or part of it): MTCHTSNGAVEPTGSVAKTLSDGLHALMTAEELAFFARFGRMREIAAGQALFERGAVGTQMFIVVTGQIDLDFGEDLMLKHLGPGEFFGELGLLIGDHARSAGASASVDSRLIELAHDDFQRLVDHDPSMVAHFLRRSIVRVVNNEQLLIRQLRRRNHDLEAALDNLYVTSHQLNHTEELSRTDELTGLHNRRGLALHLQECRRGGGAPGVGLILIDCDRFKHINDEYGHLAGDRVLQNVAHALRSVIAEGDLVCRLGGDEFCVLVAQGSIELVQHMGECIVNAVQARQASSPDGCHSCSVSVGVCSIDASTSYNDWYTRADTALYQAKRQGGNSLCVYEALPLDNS

Row | Molecule | guanylyl cyclase assay, reverse-phase HPLC and mass spectrometry [2] | also measured
1 | Nc1nc2c(ncn2[C@@H]2O[C@@H]3COP(=O)(O)O[C@H]4[C@@H](O)[C@H](n5cnc6c(=O)[nH]c(N)nc65)O[C@@H]4COP(=O)(O)O[C@H]3[C@H]2O)c(=O)[nH]1 [cyclic di-GMP] |  | diguanylate cyclase assay, HPLC and mass spectrometry (full-length XC_0249): The identity of cyclic di-GMP as a product was confirmed by mass spectrometry
2 | cNMP domain of XC_0249 (domain or fragment) |  | stoichiometry N [1]: 2
3 | Nc1nc2c(ncn2[C@@H]2O[C@H](COP(=O)(O)OP(=O)(O)OP(=O)(O)O)[C@@H](O)[C@H]2O)c(=O)[nH]1 [GTP] | This protein had guanylate cyclase activity, converting GTP to cyclic GMP | 
4 | Nc1nc2c(ncn2[C@@H]2O[C@@H]3COP(=O)(O)O[C@H]3[C@H]2O)c(=O)[nH]1 [cyclic GMP] | This protein had guanylate cyclase activity, converting GTP to cyclic GMP | 
